Test results: patent US9296704B2, “Substituted pyrimidines as protein kinase inhibitors” (CELGENE AVILOMICS RESEARCH, INC., priority 2007, dated 2016)

Experiments:
Format in all cases: biochemical
[1] = molecular target: BTK (Homo sapiens, UniProt Q06187); experiment: Omnia assay for potency against BTK; details: read-out: BTK Inhibition
Summary of the method: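 BTK (5 nM) was pre-incubated 30 min at 27° C with serially diluted compounds in Tris pH 7.5/MgCl2 buffer, then started with […] and Y5-Sox peptide 10 mM (ATP KMapp ~36 mM). Fluorescence (ex360/em485) was read continuously over 60 min. IC50 came from initial velocities using a variable-slope fit.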

[2] = molecular target: T1, BMX (Homo sapiens, UniProt P51813); experiment: Omnia assay for potency against BMX; details: read-out: BMX inhibition
T1 sequence (P51813 1-675): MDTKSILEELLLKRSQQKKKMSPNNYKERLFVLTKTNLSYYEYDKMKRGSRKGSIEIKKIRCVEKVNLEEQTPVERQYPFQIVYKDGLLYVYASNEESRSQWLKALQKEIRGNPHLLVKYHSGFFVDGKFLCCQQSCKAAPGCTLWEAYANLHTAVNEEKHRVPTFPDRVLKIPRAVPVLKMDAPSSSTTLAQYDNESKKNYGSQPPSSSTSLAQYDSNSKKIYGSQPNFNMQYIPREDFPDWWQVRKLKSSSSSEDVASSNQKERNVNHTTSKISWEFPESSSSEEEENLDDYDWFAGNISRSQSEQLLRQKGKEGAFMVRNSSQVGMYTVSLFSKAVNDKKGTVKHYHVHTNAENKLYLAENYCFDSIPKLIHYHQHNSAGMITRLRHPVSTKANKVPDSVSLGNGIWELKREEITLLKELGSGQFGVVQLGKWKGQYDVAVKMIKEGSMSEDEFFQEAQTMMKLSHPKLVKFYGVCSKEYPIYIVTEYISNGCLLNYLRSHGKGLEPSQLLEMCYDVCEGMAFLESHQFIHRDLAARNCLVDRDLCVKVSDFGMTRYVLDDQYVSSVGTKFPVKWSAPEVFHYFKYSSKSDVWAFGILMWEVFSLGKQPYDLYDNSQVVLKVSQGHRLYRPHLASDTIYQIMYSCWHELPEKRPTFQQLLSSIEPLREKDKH

[3] = molecular target: T2, JAK3 (Homo sapiens, UniProt P52333); experiment: Omnia assay for potency against JAK3; details: read-out: JAK3 Inhibition
T2 sequence (P52333 1-1124): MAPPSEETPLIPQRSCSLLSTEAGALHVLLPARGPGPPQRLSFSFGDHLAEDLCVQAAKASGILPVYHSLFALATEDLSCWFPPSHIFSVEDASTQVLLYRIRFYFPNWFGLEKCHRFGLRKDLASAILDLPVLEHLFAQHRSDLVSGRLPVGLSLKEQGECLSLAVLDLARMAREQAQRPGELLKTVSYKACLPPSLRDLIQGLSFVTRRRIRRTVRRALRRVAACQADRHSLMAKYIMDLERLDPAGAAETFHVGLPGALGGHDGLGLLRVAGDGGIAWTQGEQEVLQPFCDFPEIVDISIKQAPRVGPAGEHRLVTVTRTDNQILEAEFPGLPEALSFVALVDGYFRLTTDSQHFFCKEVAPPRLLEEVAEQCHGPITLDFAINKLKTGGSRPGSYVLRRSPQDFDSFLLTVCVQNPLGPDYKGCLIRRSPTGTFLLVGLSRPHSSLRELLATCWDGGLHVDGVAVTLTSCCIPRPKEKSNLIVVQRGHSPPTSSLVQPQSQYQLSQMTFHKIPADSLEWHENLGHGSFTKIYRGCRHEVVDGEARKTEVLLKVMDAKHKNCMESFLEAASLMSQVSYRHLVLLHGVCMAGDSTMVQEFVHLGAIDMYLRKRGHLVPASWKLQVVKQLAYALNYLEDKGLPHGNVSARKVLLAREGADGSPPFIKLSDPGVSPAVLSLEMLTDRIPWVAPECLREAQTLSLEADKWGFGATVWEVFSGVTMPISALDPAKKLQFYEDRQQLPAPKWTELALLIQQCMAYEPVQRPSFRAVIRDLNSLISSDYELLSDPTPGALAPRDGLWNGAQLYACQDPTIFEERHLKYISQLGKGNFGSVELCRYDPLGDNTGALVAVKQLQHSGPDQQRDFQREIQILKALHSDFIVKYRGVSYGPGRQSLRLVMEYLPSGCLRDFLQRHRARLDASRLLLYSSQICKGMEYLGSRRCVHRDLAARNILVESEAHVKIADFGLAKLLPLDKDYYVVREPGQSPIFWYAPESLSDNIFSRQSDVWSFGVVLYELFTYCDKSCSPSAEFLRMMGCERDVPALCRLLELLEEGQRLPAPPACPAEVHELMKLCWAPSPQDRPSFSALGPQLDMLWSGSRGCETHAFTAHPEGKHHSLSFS
Summary of the method: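 Continuous-read Omnia kinase assay with 5 nM JAK3, 5 μM ATP (near apparent Km) and 5 μM Y12-Sox peptide in Tris pH 7.5/MgCl2 buffer; enzyme pre-incubated with compound 30 min at 27 °C. Fluorescence (ex360/em485) read over 60 min; initial velocities fitted against inhibitor concentration to give IC50.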

BTK, sequence (Q06187 whole entry): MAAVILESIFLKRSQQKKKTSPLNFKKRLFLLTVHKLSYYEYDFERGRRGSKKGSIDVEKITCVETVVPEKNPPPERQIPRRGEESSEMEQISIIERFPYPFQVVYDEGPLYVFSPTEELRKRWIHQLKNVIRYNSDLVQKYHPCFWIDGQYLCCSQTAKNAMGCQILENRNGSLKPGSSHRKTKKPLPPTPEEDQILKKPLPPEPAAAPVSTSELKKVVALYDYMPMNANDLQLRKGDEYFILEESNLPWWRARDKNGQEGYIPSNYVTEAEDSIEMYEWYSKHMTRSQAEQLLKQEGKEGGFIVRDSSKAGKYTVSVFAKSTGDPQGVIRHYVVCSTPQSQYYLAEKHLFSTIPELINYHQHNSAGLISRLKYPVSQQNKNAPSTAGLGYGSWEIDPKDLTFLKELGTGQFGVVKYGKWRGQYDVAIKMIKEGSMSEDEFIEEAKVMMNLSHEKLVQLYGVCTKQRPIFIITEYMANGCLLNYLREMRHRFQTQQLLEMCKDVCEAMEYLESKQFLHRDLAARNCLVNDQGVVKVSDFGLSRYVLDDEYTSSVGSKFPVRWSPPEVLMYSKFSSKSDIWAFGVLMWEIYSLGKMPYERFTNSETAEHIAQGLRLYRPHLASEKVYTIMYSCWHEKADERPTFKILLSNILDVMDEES

| IC50 [1] [nM] | IC50 [2] [nM] | IC50 [3] [nM] | SMILES |
| --- | --- | --- | --- |
| ≤ 10 | ≤ 10 | ≤ 10 | C=CC(=O)Nc1cccc(Nc2cc(Nc3ccccc3)ncn2)n1 [I-94] |
| ≤ 10 | ≤ 10 | ≤ 10 | CN(C)C/C=C/C(=O)N(C)c1cccc(Nc2cc(Nc3ccc(Oc4ccccc4)cc3)ncn2)n1 [I-79, (E)-4-(dimethylamino)-N-methyl-N-(6-(6-(4-phenoxyphenylamino)pyrimidin-4-ylamino)pyridine-2-yl)but-2-enamide] |
| ≤ 10 | ≤ 10 | ≤ 10 | C=CC(=O)Nc1cccc(Nc2cc(Oc3cccc(C)c3)ncn2)n1 [I-65] |
| 10 to 100 | – | ≤ 10 | C=CC(=O)Nc1cccc(Nc2cc(Nc3cccc(Br)c3)ncn2)c1 [I-1, N-{3-[6-(3-bromophenylamino)-pyrimidin-4-ylamino]-phenyl}-2-propenamide] |
| ≤ 10 | ≤ 10 | 10 to 100 | C=CC(=O)Nc1cccc(Nc2cc(Nc3ccc(Oc4ccccc4)cc3)ncn2)n1 [I-63] |
| ≤ 10 | 10 to 100 | ≤ 10 | C=CC(=O)N(C)c1cccc(Nc2cc(Nc3ccc(Oc4ccccc4)cc3)ncn2)n1 [I-78, N-methyl-N-(6-(6-(4-phenoxyphenylamino)pyrimidin-4-ylamino)pyridin-2-yl)acrylamide] |
| ≤ 10 | ≤ 10 | 100 to 1000 | C=CC(=O)Nc1cccc(Nc2cc(Oc3ccc(Oc4ccccc4)cc3)ncn2)n1 [I-66] |
| ≤ 10 | 10 to 100 | ≤ 10 | CN(C)C/C=C/C(=O)Nc1cccc(Nc2cc(Nc3ccc(Oc4ccccc4)cc3)ncn2)n1 [I-64, (E)-4-(dimethylamino)-N-(6-(6-(4-phenoxyphenylamino)pyrimidin-4-ylamino)pyridine-2-yl)but-2-enamide] |
| ≤ 10 | ≤ 10 | ≤ 10 | Cc1cccc(Oc2cc(Nc3cccc(NC(=O)/C=C/CN(C)C)n3)ncn2)c1 [I-81] |

| SMILES | IC50 [1] [nM] | IC50 [2] [nM] | IC50 [3] [nM] |
| --- | --- | --- | --- |
| C=CC(=O)Nc1cccc(Nc2cc(Nc3ccc(Oc4ccccc4)cc3)ncn2)c1 [I-13, N-{3-[6-(4-phenoxyphenylamino)-pyrimidin-4-ylamino]phenyl}-2 propenamide] | ≤ 10 | ≤ 10 | 100 to 1000 |
